# PubChem BioAssay AID2060893 (Molecular Pharmacology Branch, DTP, NCI, 2025)
# System: K86415-001-R-J1-PDC complex spheroids, viability
# Experiment: Anticancer human tumor K86415-001-R-J1-PDC patient-derived lung adenocarcinoma cell line growth inhibition [RAS]
# Details: for IC50: curve of first compound; for viability, T/C: stronger effect = lower value
# Description: RAS pathway inhibitors in Combinations in Complex Spheroids
# A high-throughput screen of multi-cell type tumor spheroids was designed to identify active combinations of RAS pathway inhibitors and targeted small molecules. Complex spheroids include a stromal component modeled by human endothelial cells (HUVEC) and fibroblasts modeled by human mesenchymal stem cells (MSCs). The concentration ranges selected for each drug and investigational agent were based upon clinically achievable concentrations if the clinical Cmax of the agent was known.
# Compounds. The drugs and investigational agents: abemaciclib (NSC768073), cobimetinib (NSC768068), divarasib (GDC6063, NSC841802), docetaxel (NSC628503), GDC-1971 (RLY-1971, NSC841576), gemcitabine (NSC613327), inavolisib (NSC800729), ipatasertib (NSC767898), KB-0742 (NSC834161), MRTX-1133 (NSC836407), osimertinib (NSC779217), RMC-4630 (NSC839698), RMC-6236 (NSC851965), RMC-6291 (NSC852671), Ro-3306 (NSC812927), sapanisertib (NSC764658), SN-38 (NSC673596), staurosporine (NSC755774), SY5609 (NSC837396), and tovorafenib (DAY101, NSC766906), were obtained from the National Cancer Institute (NCI) Developmental Therapeutics Program Chemical Repository. The FDA-approved anticancer drug set is available from the NCI Developmental Therapeutics Program. […] The stock solutions were prepared in dimethyl sulfoxide (DMSO, Sigma-Aldrich, St. Louis, MO, cat. D2650) at 800-fold the tested concentration and stored at -70 degrees C prior to their use. All drugs and investigational agents were tested over a range starting from a high concentration at or near the clinical Cmax and decreasing in half-log increments. If the clinical Cmax for an agent had not been determined, the highest concentration tested was 10 microM.
# Cell Culture. All cells were maintained in an incubator at 37 degrees C and 5% CO2 with 95% humidity. The PDC lines were cultured according to standard operating procedures established by the NCI PDMR. All PDCs were thawed and cultured in Matrigel-coated flasks prepared with a working solution of 1X Ham's F-12 nutrient mix, without supplementation (Invitrogen, Waltham, MA, cat. 11765054), 100 U/mL penicillin-streptomycin (Invitrogen, cat. 15140122), and 2.5% Matrigel (Corning Inc., Corning, NY, cat. 354248) for the first three passages. The 362531-283-R-J2-PDC and 782815-120-R-J1-PDC lines were cultured in 6C/Colon 1B media, which includes advanced DMEM/F-12 (Thermo Fisher Scientific, cat. 12634028), 10 mM HEPES (Thermo Fisher Scientific, cat. 15630080), 1X GlutaMAX supplement (Thermo Fisher Scientific, cat. 35050061), 0.1 mg/mL primocin (InvivoGen, San Diego, CA, cat. ant-pm-2), 10% defined fetal bovine serum, heat inactivated (HyClone Laboratories Inc., Logan, UT, cat. SH30070.03HI), 50% L-WRN conditioned media (ATCC, cat. CRL-3276), 1.25 mM N-Acetyl-L-cysteine (Sigma-Aldrich, cat. A9165), 10 mM nicotinamide (Sigma-Aldrich, cat. N0636), 1X B-27 supplement (Thermo Fisher Scientific, cat. 17504044), 1X N-2 supplement (Thermo Fisher Scientific, cat. 17502048), 50 ng/mL human EGF (Thermo Fisher Scientific, cat. PHG0311), and 10 microM Y-27632 dihydrochloride (Tocris Bioscience, cat. 1254). The K12877-001-R-J1-PDC line was cultured in 6I media, which includes all 6C/Colon 1B media plus 10 ng/mL human FGF-10 (PeproTech, cat. 100-26), 1 ng/mL human FGF-2 (PeproTech, cat. 100-18B), 1 µM prostaglandin E2 (Tocris Bioscience, cat. 2296), […] hydrocortisone (Sigma-Aldrich, cat. H4001), and […] bovine insulin (Sigma-Aldrich, cat. I6634). The K86415-001-R-J1-PDC line was cultured in 6D media, which includes all 6C/Colon 1B media components minus the L-WRN conditioned media. The 485176-168-R4-J1-PDC was cultured in PANC media, which includes all 6C/Colon 1B media plus 100 ng/mL human FGF-10 (PeproTech, cat. 100-26), 500 nM SB-431542 (Selleckchem, cat. S1067), and 10 nM gastrin (Tocris Bioscience, cat. 3006). […]
# 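Note: spheroids exposed to agents for seven days before readout.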
smiles,measurement,setting,value
CC1(O)CCCC1n1c(=O)c(C(F)F)cc2cnc(NC3CCN(S(C)(=O)=O)CC3)nc21 (configuration not stated) + C#Cc1c(F)ccc2cc(O)cc(-c3ncc4c(N5CC6CCC(C5)N6)nc(OCC56CCCN5CC(F)C6)nc4c3F)c12,IC50,second compound 0.0316 µM,4.56 µM
same,IC50,second compound 0.1 µM,4.58 µM
same,IC50,second compound 0.316 µM,4.3 µM
same,IC50,second compound 1 µM,4.02 µM
same,IC50,second compound 3.16 µM,< 0.0316 µM
same,IC50,second compound 10 µM,< 0.0316 µM
same,"viability, T/C","second compound 0.0316 µM, first compound 0.0316 µM",86.2%
same,"viability, T/C","second compound 0.0316 µM, first compound 0.1 µM",71.4%
same,"viability, T/C","second compound 0.0316 µM, first compound 0.316 µM",59%
same,"viability, T/C","second compound 0.0316 µM, first compound 1 µM",79.4%
same,"viability, T/C","second compound 0.0316 µM, first compound 3.16 µM",70%
same,"viability, T/C","second compound 0.0316 µM, first compound 10 µM",7.15%
same,"viability, T/C","second compound 0.1 µM, first compound 0.0316 µM",78.2%
same,"viability, T/C","second compound 0.1 µM, first compound 0.1 µM",68.4%
same,"viability, T/C","second compound 0.1 µM, first compound 0.316 µM",57.9%
same,"viability, T/C","second compound 0.1 µM, first compound 1 µM",64.6%
same,"viability, T/C","second compound 0.1 µM, first compound 3.16 µM",80.6%
same,"viability, T/C","second compound 0.1 µM, first compound 10 µM",8.13%
same,"viability, T/C","second compound 0.316 µM, first compound 0.0316 µM",74.2%
same,"viability, T/C","second compound 0.316 µM, first compound 0.1 µM",63.3%
same,"viability, T/C","second compound 0.316 µM, first compound 0.316 µM",55%
same,"viability, T/C","second compound 0.316 µM, first compound 1 µM",67.9%
same,"viability, T/C","second compound 0.316 µM, first compound 3.16 µM",67.1%
same,"viability, T/C","second compound 0.316 µM, first compound 10 µM",8.09%
same,"viability, T/C","second compound 1 µM, first compound 0.0316 µM",65.3%
same,"viability, T/C","second compound 1 µM, first compound 0.1 µM",62.4%
same,"viability, T/C","second compound 1 µM, first compound 0.316 µM",53.6%
same,"viability, T/C","second compound 1 µM, first compound 1 µM",54.5%
same,"viability, T/C","second compound 1 µM, first compound 3.16 µM",70.7%
same,"viability, T/C","second compound 1 µM, first compound 10 µM",6.85%
same,"viability, T/C","second compound 3.16 µM, first compound 0.0316 µM",28.2%
same,"viability, T/C","second compound 3.16 µM, first compound 0.1 µM",28.9%
same,"viability, T/C","second compound 3.16 µM, first compound 0.316 µM",29%
same,"viability, T/C","second compound 3.16 µM, first compound 1 µM",43.6%
same,"viability, T/C","second compound 3.16 µM, first compound 3.16 µM",59.4%
same,"viability, T/C","second compound 3.16 µM, first compound 10 µM",5.28%
same,"viability, T/C","second compound 10 µM, first compound 0.0316 µM",15.6%
same,"viability, T/C","second compound 10 µM, first compound 0.1 µM",16.1%
same,"viability, T/C","second compound 10 µM, first compound 0.316 µM",21.9%
same,"viability, T/C","second compound 10 µM, first compound 1 µM",25.9%
same,"viability, T/C","second compound 10 µM, first compound 3.16 µM",30.2%
same,"viability, T/C","second compound 10 µM, first compound 10 µM",2.97%
